The structures appear in SMILES notation. Read-outs that look alike come from different tables or passages of the source.

For series [1] the following is noted: cited from earlier work.
The nature of series [2]: Preliminary experiments: salt-induced precipitation/aggregation of 0.2% w/v aqueous Trypan Blue. It counts as physicochemical.
The nature of series [3]: Dye precipitation on mixing Nominal 0.4% Trypan Blue in NaCl with polycationic compounds. Format: physicochemical. The conditions noted are these: Nominal 0.4% Trypan Blue in NaCl (0.20 mL) mixed with 0.5 mg mL^−1 compound in PBS (0.20 mL). The text has this: In the present study, Trypan Blue was mixed with various cell culture medium containing polycationic compounds. Nominal 0.4% Trypan Blue in NaCl was mixed with PBS (negative control), kanamycin (a positively charged aminoglycoside), and spermidine (a positively charged polyamine). […] This effect can be reasonably generalized to other polycationic compounds, particularly those containing amine functional groups.

Regarding `Cc1cc(-c2ccc(/N=N/c3ccc4c(S(=O)(=O)O)cc(S(=O)(=O)O)c(N)c4c3O)c(C)c2)ccc1/N=N/c1ccc2c(S(=O)(=O)O)cc(S(=O)(=O)O)c(N)c2c1O` [Evans Blue], the “Solubility of precipitate with neomycin” value in series [1] (pH 8.5) is reported as “insoluble”; in series [1] (pH 10.4), “dissolves”.
Consider `Cc1cc(-c2ccc(/N=N/c3c(S(=O)(=O)O)cc4cc(S(=O)(=O)O)cc(N)c4c3O)c(C)c2)ccc1/N=N/c1c(S(=O)(=O)O)cc2cc(S(=O)(=O)O)cc(N)c2c1O` [Trypan Blue], for which the “Formation of red colored dye aggregates” value in series [2] (0.2% w/v in deionized water, two weeks at 4° C.) is given as “did not form red colored dye aggregates”.
For the compound `[Cl-].[Cs+]` [cesium chloride], the “Dye aggregation of Trypan Blue in presence of salt” value (“Dye aggregation of Trypan Blue” for short) in series [2] (150 mM concentrations) is recorded as “produced dye aggregation”.
Regarding `[Cl-].[Li+]` [lithium chloride], the “Dye aggregation of Trypan Blue” value in series [2] (concentrations as high as 600 mM) is given as “did not promote dye aggregation”.
Turning to `O=P([O-])(O)O.[Na+]` [monosodium phosphate], the “Dye aggregation of Trypan Blue” value in series [2] (150 mM sodium concentrations) is listed as “promoted dye aggregation”.
With `[Cl-].[K+]` [potassium chloride], in series [2] (150 mM concentrations), the “Dye aggregation of Trypan Blue” value is given as “produced dye aggregation”.
For `[Cl-].[Na+]` [sodium chloride], in series [2] (150 mM salt, storage for 16 hours at 4° C.), the “Precipitation of 0.2% w/v Trypan Blue” value is reported as “exhibited precipitation”. In addition, the “Precipitation of the dye from 0.2% w/v aqueous solution of Trypan Blue” value in series [2] (addition of 250 mM salt) is listed as “rapid precipitation of the dye”.
For the compound `O=S([O-])[O-].[Na+].[Na+]` [sodium sulfite], in series [2] (150 mM sodium concentrations), the “Dye aggregation of Trypan Blue” value is on record as “promoted dye aggregation”.
Take `NCCCCNCCCN` [spermidine]: the “Precipitation of Trypan Blue” value in series [3] is recorded as “trigger immediate precipitation of Trypan Blue”.

The record behind these values is US12559629B2, “Method for preparing a stable Trypan Blue solution” (BECKMAN COULTER, INC., priority 2020, dated 2026).
